Experimental data taken from ChEMBL document CHEMBL3507680, “University of Dundee, Gates Library screen for HepG2 cell viability”.

experiment: Human HepG2 cell viability assay in 384 well format; type: toxicity, cell-based; parameters: dose 125 nL, time 70.5 hour; cytotoxicity at 70.5 h: concentration not given beside the values; conditions: HepG2 cells, read-out: Inhibition

| SMILES | cytotoxicity at 70.5 h [%] |
| --- | --- |
| FC(F)Sc1ccc(NCc2nnc(C3CC3)o2)cc1 | -4.17 |
| CCC(O)CN(Cc1ccccc1)S(=O)(=O)c1cnc(C)s1 (centres undefined) | -9.64 |
| CN(C)S(=O)(=O)N1C[C@H]2CCC[C@@]2(COCC2CC2)C1 | 16.4 |
| Cc1ncnc2c1CCN(C(=O)c1ccnnc1)CC2 | -2.5 |
| CC(=O)NCCCc1ncnn1-c1cccc(Cl)c1 | 1.57 |
| O=C1CN(Cc2cc(O)c3cccc(F)c3n2)CCN1C1CCCC1 | 5.5 |
| Cc1nccn1-c1ccc(CNS(=O)(=O)N2CCCC(C)C2)cn1 (centres undefined) | -4.59 |
| Cc1cc(C(=O)N2CCC(c3nccn3Cc3ccccn3)CC2)no1 | -6.61 |
| COCCN1CCCc2sc(C(=O)Nc3ccc(C)nc3)nc21 | -0.226 |
| Cc1nccn1-c1cncc(C2CCCN2Cc2ccccc2)n1 (centres undefined) | 14.2 |
| N#Cc1ccc(N2CCC(OC3CCOCC3)CC2)cc1Cl | 1.95 |
| CCN(C(=O)c1cc2c([nH]c1=O)CCCC2=O)C1CCCCC1 | -5.73 |
| Cc1ncc(-c2ccnc(N3CCN(C)CC3)n2)c(-c2cccnc2)n1 | -13.1 |
| C[C@@H](NC(=O)c1cccnc1)c1onc(-c2ccccc2)c1C(=O)O | -4.96 |
| Cc1noc(C)c1-c1cncc(C2CCCN2Cc2c[nH]cn2)n1 (centres undefined) | -6.81 |
| O=C(c1cnc(-c2cccs2)s1)N1CCCC(n2cccn2)C1 (centres undefined) | -4.26 |
| CC(=O)N1CCN(C(C)c2nnc(CC(C)C)o2)CC1 (centres undefined) | -4.1 |
| CNc1cc2c(nn1)CCN(C(=O)c1ccc3c(c1)OCO3)C2 | -8.95 |
| Cn1nnc2c(N3CC(C(=O)NCc4ccccc4F)C3)ncnc21 | -8.25 |
| CN(C)C(=O)c1ccc2c(c1)N(C)C(CC(=O)NCc1ncc[nH]1)CO2 (centres undefined) | -5.15 |
| CS(=O)(=O)N1CCC(c2cnc(-c3cn[nH]c3)cn2)CC1 | 0.854 |
| O[C@@H]1C[C@@H](c2nc(Cc3ccccc3)no2)N(Cc2ncc[nH]2)C1 | 9.72 |
| C1CCC(c2nn3c(C4CCCO4)nnc3s2)C1 (centres undefined) | -9.64 |

| SMILES | cytotoxicity at 70.5 h [%] |
| --- | --- |
| Cc1noc(C2CCCN(C(=O)c3cc(-c4ccccc4)on3)C2)n1 (centres undefined) | -20.7 |
| Cc1oncc1C(=O)N1CC[C@H]2[C@@H]1CCC(=O)N2CC1CCOCC1 | -1.77 |
| Cc1cncc(C2CCN(Cc3ccsc3)CC2)n1 | 4.8 |
| CN1CCc2[nH]cnc2C12CCN(C(=O)CCc1cccs1)CC2 | 16.8 |
| CNc1[nH]nc(N)c1C(=O)Nc1ccccc1 | 2.68 |
| CCOCCCNC(=O)c1cc(C)nc(N2CCCC2)n1 | 21.7 |
| Cn1c(CC2CCS(=O)(=O)C2)nnc1SCCOc1cccc(Cl)c1 (centres undefined) | -11.2 |
| COc1ccc(-c2csc(-c3cccc(C(=O)O)c3)n2)cc1OC | -9.98 |
| CCc1[nH]c2c(CNc3nccc(N)n3)cc(C)cc2c1C | 23.9 |
| CC(C)N(Cc1ccccn1)C(=O)CN(C)C(=O)c1cccs1 | -22.7 |
| CSc1nsc(SCC(=O)c2cc3c(cc2Cl)NC(=O)C3)n1 | -29.3 |
| CNCc1cnc(Nc2ccccc2)nc1 | -5.59 |
| CC(=O)Nc1nc(CN2CCCC2Cn2cccn2)cs1 (centres undefined) | -6.85 |
| Cc1ccc(-c2noc(CN3CCOC(Cn4cccn4)C3)n2)cc1 (centres undefined) | -3.88 |
| O=C(c1ccc(F)cc1)N1C[C@H]2CCC[C@@]2(COCc2ccccn2)C1 | -15.6 |
| CC(NS(=O)(=O)N(C)C(C)C)C(=O)N(C)C (centres undefined) | -4.6 |
| COCCN1CCN(Cc2nnc(-c3occc3C)o2)CC1 | -6.39 |
| Cc1nc(C)c(C(=O)N2Cc3ccccc3OCC2Cn2ccnc2)s1 (centres undefined) | 2.25 |
| O=C(NCc1ccon1)c1c(F)cc(Br)cc1F | -3.14 |
| CCN(C)Cc1cccc(CNC(=O)NCCc2ccccn2)c1 | -3.19 |
| Cc1nc(CC(=O)N2CCN(CCOc3ccccc3)CC2)cs1 | -10.1 |
| CCOc1cc(C)nc(N2CCN(C(=O)c3ccc[nH]3)CC2)n1 | -7.65 |
| Cc1c[nH]nc1C1CCN(C(=O)C2CCOCC2)C1 (centres undefined) | 12.3 |

| SMILES | cytotoxicity at 70.5 h [%] |
| --- | --- |
| O=C(Nc1ccccc1OC1CCOC1)c1[nH]nc2c1CCCC2 (centres undefined) | 8.78 |
| CC(C)C(=O)N1CC2(CCN(CC(C)(C)C)CC2)C1 | 47.3 |
| CC(NC(=O)N1CCSC(C)(C)C1)c1noc(-c2ccccc2)n1 (centres undefined) | -0.307 |
| Cc1ncc(CNC2CC(=O)N(CCc3ccc(F)cc3)C2)n1C (centres undefined) | -10.7 |
| CNC(=O)C1(CCCc2ccccn2)CN(Cc2nccn2C)C1 | -9.75 |
| Cc1ccc(OCC(=O)NS(=O)(=O)c2cccnc2)cc1C | 23.3 |
| c1cc(CNCC2CNc3ccnn3C2)cc(Cn2cccn2)c1 (centres undefined) | 4.46 |
| Cc1nn(C)c(N(C)C)c1CNCc1ccc(N(C)C)nc1 | -2.4 |
| CCC(CC)C(CNC(=O)Nc1cnn(CCOC)c1)N(C)C (centres undefined) | -8.7 |
| Cc1ncc(CNC(=O)c2oc3ccccc3c2CN(C)C)s1 | -8.45 |
| Cc1nnc([C@@H]2CC[C@@H]3[C@@H](CCN3S(=O)(=O)c3cccnc3)O2)o1 | 0.577 |
| O=C(O)C1CN(c2cccc(Cl)c2)CCO1 (centres undefined) | -4.2 |
| O=C(NCc1ccc(C(=O)O)o1)c1ccc(F)cc1 | 0.996 |
| CCc1ccc(CN2CCCn3c(nc(Cn4ccnc4)cc3=O)C2)o1 | -0.664 |
| Cc1cc(-c2nn3c(C(C)C)nnc3s2)on1 | -10.1 |
| CN(Cc1cccc(Cl)c1)S(=O)(=O)N1CCOCC1 | 1.29 |
| CCS(=O)(=O)CCNC(=O)c1ccc(-c2ccc(C)cc2)cc1F | -6.67 |
| c1ccc(-c2nnc3ccc(N4CCC5(CCOC5)C4)nn23)cc1 (centres undefined) | 5.72 |
| Cc1noc(C)c1CN(C)CCC(=O)N1CCc2sccc2C1 | -4.03 |
| COc1cc(-c2cnnc(NCC3CC3)n2)cc(OC)c1OC | 5.52 |
| CCc1nc(CC(=O)N2CCn3c(nnc3C(C)C)C2)cs1 | 0.586 |
| CCN1CC(C(=O)N(C)Cc2ccon2)CC1=O (centres undefined) | 25.3 |
| CC(C)n1cnnc1CNC(=O)c1cnn(Cc2ccccc2)c1 | -2.61 |

| SMILES | cytotoxicity at 70.5 h [%] |
| --- | --- |
| COc1ccccc1N1CCC(CNS(=O)(=O)c2cccc(C#N)c2)C1 (centres undefined) | 22.7 |
| O=C(CCc1cc2n(n1)CCN(Cc1ccncc1)C2)N1CCCC1 | 18.6 |
| Cc1nc(C)n(C2CCCN(C(=O)c3csc(CC(C)C)n3)C2)n1 (centres undefined) | -13.9 |
| COc1ccccc1NC(=O)NCC(O)(c1ccccc1)C1CC1 (centres undefined) | 20.2 |
| CC(=O)Nc1nc(CN2CCOC(Cn3cccn3)C2)cs1 (centres undefined) | -5.08 |
| CC(C)CCN1CCc2[nH]nc(C(=O)N3CC=CC3)c2C1 | -6.59 |
| CCN(CC)S(=O)(=O)N1CCCC1C(=O)N1CCSCC1 (centres undefined) | -2.8 |
| COCCN1CCC2(CC1)CN(CCn1cccn1)C(=O)CO2 | 1.22 |
| Cc1cc(C)c(CNC(=O)NCCC2CCCO2)c(=O)[nH]1 (centres undefined) | -2.77 |
| O=C(C1CCC2(CCN(CC3CC3)CC2)O1)N1CCCC1 (centres undefined) | -7.11 |
| Cc1ccc(-c2nc(CN3CCn4c(nnc4C4CC4)C3)co2)c(C)c1 | -5.17 |
| NCC(CO)Cc1cccc(OC(F)(F)F)c1 (centres undefined) | 2.39 |
| COc1ccnc(N2C[C@@H]3CC[C@H](C2)N(CC2CC2)C3)n1 | 4.47 |
| N#Cc1cccc(C(=O)N2CC[C@H]3[C@H]2CCN3CC2CC2)c1 | 19.2 |
| Cn1cc(CN2CC[C@H]3[C@H]2CC(=O)N3Cc2ccncc2)cn1 | -15.4 |
| CCc1ccc(C(=O)N2CCCN(Cc3nccn3CC)CC2)s1 | 14 |
| CCn1ccnc1CN1CCN(c2ccc3nnc(C)n3n2)CC1 | -8.35 |
| CC(C)c1cc(NC(=O)CN2CCc3ccccc3C2)on1 | -6.95 |
| COc1ccc(S(=O)(=O)NCCCc2nnc3nc(C)cc(C)n23)cc1 | -7.77 |
| O=C(c1ccc(Cn2cc(Br)cn2)cc1)N1CCOCC1 | -7.67 |
| Cc1ccc(-c2ncc(C(=O)NCCNC(=O)C(C)C)s2)c(C)c1 | -8.72 |
| CC(=O)Nc1ccc(-c2ccccc2NC(=O)CN)cc1 | 28.6 |
| CCn1cc(CNC2CCN(c3c(F)cccc3F)C2)cn1 (centres undefined) | -0.658 |

| SMILES | cytotoxicity at 70.5 h [%] |
| --- | --- |
| CNC(=O)c1ccc(-c2ccccc2)n1C | -9.17 |
| CCOc1ccccc1N1CCN(CC2(O)CCCNC2)CC1 (centres undefined) | -1.19 |
| Cc1noc(C)c1CN1CCCC(CN(C(=O)OC(C)(C)C)C(C)C)C1 (centres undefined) | -3.37 |
| CN(C)c1ncc(C(=O)N2C[C@H]3C[C@H](Oc4ccccc4)C[C@H]3C2)cn1 | -0.787 |
| CCc1ncc(CN2CCCN(CC3CC3)C(C(C)C)C2)cn1 (centres undefined) | 9.86 |
| O=C(NCCCN1CCOCC1)c1ccc(Cl)cc1Cl | 2.42 |
| Cc1ccc2[nH]c(CO[C@H]3CN(C(=O)C4CC4)C[C@H]3F)nc2c1 | 3.41 |
| CCS(=O)(=O)NCC(=O)N1CCC(c2cc3ccccc3[nH]2)CC1 | 1.52 |
| O=C(Cc1ccc2c(c1)CCC2)N1CCCC1Cn1cccn1 (centres undefined) | 26.4 |
| Cc1cc(C)n(-c2ccc(CNCc3ccc(F)c(F)c3)cn2)n1 | 2.51 |
| O=C(c1cccc(-c2ncc[nH]2)c1)N1CC[C@H](CO)[C@@H](O)C1 | -2.73 |
| O=C(NCCNc1cnccn1)N1CCCCCC1 | 2.18 |
| COCCN(Cc1ccncc1)C(=O)C1COc2ccccc2C1 (centres undefined) | -6.32 |
| O=C1CC2(CCSC2)C(=O)N1Cc1coc(-c2ccc(F)cc2)n1 (centres undefined) | -3.42 |
| O=C1N(c2ccc(Br)cc2)Cc2nc(=O)[nH]n21 | -16.4 |
| Cc1cc(C)c2c(c1)C(NC(=O)CSc1nnc[nH]1)CCO2 (centres undefined) | 10.8 |
| Cc1ccc(C(=O)N(C)CCOc2ccccc2F)c(=O)[nH]1 | -5.2 |
| COc1ncc(CN2CCOC(Cc3cccc4ccccc34)C2)cn1 (centres undefined) | 20 |
| O=C(NCc1ncc[nH]1)c1c(F)cccc1I | 11.2 |
| Cc1nc(C)c(CC(=O)N2CCCN(CC3CC3)C(C(C)C)C2)c(=O)[nH]1 (centres undefined) | 0.531 |
| CCn1c(CN2CCCC2)nnc1C1CCN(Cc2ccncc2)CC1 | 19.4 |
| CN1C(=O)CCN(C(=O)C2CC=CC2)c2ccccc21 | 1.54 |
